Results from patent US11986475B1, “Compositions and methods for treating cancer” (A2A Pharmaceuticals, Inc., priority 2022, dated 2024).

Key:
MDA-MB-231 = assay: Cell viability assay (SRB or CTG) in MDA-MB-231; format: cell-based; conditions: Homo sapiens, MDA-MB-231, 72 h, 3 days after drug treatment
Method: (§1) Human breast carcinoma cell line, MDA-MB-231 and human endometrial cancer cell line, HEC-59 were purchased from ATCC (American Type Culture Collection; USA). MDA-MB-231 cells were cultured in Dulbecco's modified Eagle's medium (Lonza, NJ, USA), and HEC-59 were grown in Iscove's Modified Dulbecco's Medium (Lonza, NJ, USA), supplemented with 10% fetal bovine serum (FBS, Lonza), 1% non-essential amino acid (NEAA), 2 mM L-glutamine (Sigma Aldrich, MO, USA) and 50 U/ml penicillin/streptomycin (P/S). All cell lines were tested regularly using MycoAlert Mycoplasma Detection Kit (Lonza). The cumulative length of the cells between thawing and use in the experiments was less than 20 passages.
(§2) 4000 cells/well of MDA-MB-231 and HEC-59 cells were seeded in a 96 well plate in 80 μL media/well. Approximately 18 hours later, 3× drug solutions were prepared by serial dilution (100, 10, 5, 1, 0.5, 0.3, 0.1, 0.05, 0.01 μM), and the drug containing media was added to each well with a volume of 40 μL. For MDA-MB-231, 3 days after drug treatment, the SRB or CTG assay was performed. HEC59, the drug containing media was renewed at day 4. After 7 days total, the SRB or CTG assay was performed.

HEC-59 = assay: Cell viability assay (SRB or CTG) in HEC-59; format: cell-based; conditions: Homo sapiens, 7 days total, media renewed at day 4, SRB or CTG
Method: as §1, §2

SMILES | IC50 (MDA-MB-231) [nM] | IC50 (HEC-59) [nM]
COc1ncc(-c2ccc(OC(F)F)cc2)cc1Nc1ccnc(N2C[C@@H](C)O[C@@H](C)C2)n1 [Compound 305, N-(5-(4-(difluoromethoxy)phenyl)-2-methoxypyridin-3-yl)-2-((2R,6S)-2,6-dimethylmorpholino)pyrimidin-4-amine] | > 10000 | > 10000
COc1ncc(-c2ccc(OC(F)F)cc2)cc1Nc1nc(N2C[C@@H](C)O[C@@H](C)C2)ncc1F [Compound 387, N-(5-(4-(difluoromethoxy)phenyl)-2-methoxypyridin-3-yl)-2-((2R,6S)-2,6-dimethylmorpholino)-5-fluoropyrimidin-4-amine] | > 10000 | > 10000
Cc1nnc(Nc2nc(N3C[C@@H](C)O[C@@H](C)C3)ncc2F)cc1-c1ccc(OC(F)F)cc1 [Compound 508, 5-(4-(difluoromethoxy)phenyl)-N-(2-((2R,6S)-2,6-dimethylmorpholino)-5-fluoropyrimidin-4-yl)-6-methylpyridazin-3-amine] | > 10000 | 7260
COc1nnc(Nc2nc(N3C[C@@H](C)O[C@@H](C)C3)ncc2F)cc1-c1ccc(OC(F)F)cc1 [Compound 526, 5-(4-(difluoromethoxy)phenyl)-N-(2-((2R,6S)-2,6-dimethylmorpholino)-5-fluoropyrimidin-4-yl)-6-methoxypyridazin-3-amine] | > 10000 | 1180
CNc1nnc(Nc2nc(N3C[C@@H](C)O[C@@H](C)C3)ncc2F)cc1-c1ccc(OC(F)F)cc1 [Compound 544, 4-(4-(difluoromethoxy)phenyl)-N6-(2-((2R,6S)-2,6-dimethylmorpholino)-5-fluoropyrimidin-4-yl)-N3-methylpyridazine-3,6-diamine] | > 10000 | 2720
C[C@@H]1CN(c2ncc(F)c(Nc3cc(-c4ccc(OC(F)F)cc4)c(C(=O)O)nn3)n2)C[C@H](C)O1 [Compound 562, 4-(4-(difluoromethoxy)phenyl)-6-((2-((2R,6S)-2,6-dimethylmorpholino)-5-fluoropyrimidin-4-yl)amino)pyridazine-3-carboxylic acid] | > 10000 | > 10000
CC(=O)c1nnc(Nc2nc(N3C[C@@H](C)O[C@@H](C)C3)ncc2F)cc1-c1ccc(OC(F)F)cc1 [Compound 580, 1-(4-(4-(difluoromethoxy)phenyl)-6-((2-((2R,6S)-2,6-dimethylmorpholino)-5-fluoropyrimidin-4-yl)amino)pyridazin-3-yl)ethan-1-one] | > 10000 | > 10000
COC(=O)c1nnc(Nc2nc(N3C[C@@H](C)O[C@@H](C)C3)ncc2F)cc1-c1ccc(OC(F)F)cc1 [Compound 616, methyl 4-(4-(difluoromethoxy)phenyl)-6-((2-((2R,6S)-2,6-dimethylmorpholino)-5-fluoropyrimidin-4-yl)amino)pyridazine-3-carboxylate] | > 10000 | > 10000
CNC(=O)c1nnc(Nc2nc(N3C[C@@H](C)O[C@@H](C)C3)ncc2F)cc1-c1ccc(OC(F)F)cc1 [Compound 634, 4-(4-(difluoromethoxy)phenyl)-6-((2-((2R,6S)-2,6-dimethylmorpholino)-5-fluoropyrimidin-4-yl)amino)-N-methylpyridazine-3-carboxamide] | > 10000 | > 10000

Further lines, with some results ahead:

IC50 (MDA-MB-231) [nM] | SMILES | IC50 (HEC-59) [nM]
533 | C[C@@H]1CN(c2ncc(F)c(Nc3cc(-c4ccc(OC(F)F)cc4)cnn3)n2)C[C@@H](C)O1 [Compound 90, 5-(4-(difluoromethoxy)phenyl)-N-(2-((2R,6R)-2,6-dimethylmorpholino)-5-fluoropyrimidin-4-yl)pyridazin-3-amine] | 1100
328 | C[C@H]1CN(c2ncc(F)c(Nc3cc(-c4ccc(OC(F)F)cc4)cnn3)n2)C[C@H](C)O1 [Compound 91, 5-(4-(difluoromethoxy)phenyl)-N-(2-((2S,6S)-2,6-dimethylmorpholino)-5-fluoropyrimidin-4-yl)pyridazin-3-amine] | 200
> 10000 | Fc1cnc(N2CCOC3CC32)nc1Nc1cc(-c2ccc(OC(F)F)cc2)cnn1 (stereo not drawn) [Compound 103, N-(2-(2-oxa-5-azabicyclo[4.1.0]heptan-5-yl)-5-fluoropyrimidin-4-yl)-5-(4-(difluoromethoxy)phenyl)pyridazin-3-amine] | > 10000
345 | Fc1cnc(N2CCCC2)nc1Nc1cc(-c2ccc(OC(F)F)cc2)cnn1 [Compound 104, 5-(4-(difluoromethoxy)phenyl)-N-(5-fluoro-2-(pyrrolidin-1-yl)pyrimidin-4-yl)pyridazin-3-amine] | 86
181 | C[C@@H]1CN(c2nc(F)cc(Nc3cc(-c4ccc(OC(F)F)cc4)cnn3)n2)C[C@H](C)O1 [Compound 131, 5-(4-(difluoromethoxy)phenyl)-N-(2-((2R,6S)-2,6-dimethylmorpholino)-6-fluoropyrimidin-4-yl)pyridazin-3-amine] | 142
1090 | C[C@@H]1CN(c2nccc(Nc3cc(-c4ccc(OC(F)F)cc4)cnc3F)n2)C[C@H](C)O1 [Compound 182, N-(5-(4-(difluoromethoxy)phenyl)-2-fluoropyridin-3-yl)-2-((2R,6S)-2,6-dimethylmorpholino)pyrimidin-4-amine] | 290
84 | C[C@@H]1CN(c2ccc(F)c(Nc3cc(-c4ccc(OC(F)F)cc4)cnn3)n2)C[C@H](C)O1 [Compound 223, 5-(4-(difluoromethoxy)phenyl)-N-(6-((2R,6S)-2,6-dimethylmorpholino)-3-fluoropyridin-2-yl)pyridazin-3-amine] | 61
202 | C[C@@H]1CN(c2nccc(Nc3cc(-c4ccc(OC(F)F)cc4)c[nH]c3=O)n2)C[C@H](C)O1 [Compound 264, 5-(4-(difluoromethoxy)phenyl)-3-((2-((2R,6S)-2,6-dimethylmorpholino)pyrimidin-4-yl)amino)pyridin-2(1H)-one] | 121
1050 | C[C@@H]1CN(c2ncc(F)c(Nc3cc(-c4ccc(OC(F)F)cc4)c[nH]c3=O)n2)C[C@H](C)O1 [Compound 346, 5-(4-(difluoromethoxy)phenyl)-3-((2-((2R,6S)-2,6-dimethylmorpholino)-5-fluoropyrimidin-4-yl)amino)pyridin-2(1H)-one] | 784
794 | C[C@@H]1CN(c2cc(Nc3cc(-c4ccc(OC(F)F)cc4)cnn3)ccn2)C[C@H](C)O1 [Compound 428, 5-(4-(difluoromethoxy)phenyl)-N-(2-((2R,6S)-2,6-dimethylmorpholino)pyridin-4-yl)pyridazin-3-amine] | > 10000
645 | C[C@@H]1CN(c2cc(Nc3cc(-c4ccc(OC(F)F)cc4)cnn3)c(F)cn2)C[C@H](C)O1 [Compound 469, 5-(4-(difluoromethoxy)phenyl)-N-(2-((2R,6S)-2,6-dimethylmorpholino)-5-fluoropyridin-4-yl)pyridazin-3-amine] | 1300
805 | C[C@@H]1CN(c2ncc(F)c(Nc3cc(-c4ccc(OC(F)F)cc4)c(N)nn3)n2)C[C@H](C)O1 [Compound 598, 5-(4-(difluoromethoxy)phenyl)-N3-(2-((2R,6S)-2,6-dimethylmorpholino)-5-fluoropyrimidin-4-yl)pyridazine-3,6-diamine] | 9850
